Earlier results, collected in patent US20170165286A1, “COMPOSITIONS AND METHODS FOR TREATING DIABETES AND LIVER DISEASES” (Cempra Pharmaceuticals, Inc., priority 2014, published 2017).

Tests used:
[1] = reported; cited from earlier work
[2] = reportedly; cited from earlier work

Row | SMILES | QT effect [1] | Liver toxicity [2]
1 | CC[C@H]1OC(=O)[C@H](C)[C@@H](O[C@H]2C[C@@](C)(OC)[C@@H](O)[C@H](C)O2)[C@H](C)[C@@H](O[C@@H]2O[C@H](C)C[C@H](N(C)C)[C@H]2O)[C@](C)(O)C[C@@H](C)CN(C)[C@H](C)[C@@H](O)[C@]1(C)O [azithromycin] | QT positive | –
2 | CC[C@H]1OC(=O)[C@H](C)[C@@H](O[C@H]2C[C@@](C)(OC)[C@@H](O)[C@H](C)O2)[C@H](C)[C@@H](O[C@@H]2O[C@H](C)C[C@H](N(C)C)[C@H]2O)[C@](C)(OC)C[C@@H](C)C(=O)[C@H](C)[C@@H](O)[C@]1(C)O [clarithromycin] | QT positive | toxic to the liver
3 | CC[C@H]1OC(=O)[C@H](C)C(=O)[C@H](C)[C@@H](O[C@@H]2O[C@H](C)C[C@H](N(C)C)[C@H]2O)[C@](C)(OC)C[C@@H](C)C(=O)[C@H](C)[C@H]2N(CCCCn3cnc(-c4cccnc4)c3)C(=O)O[C@]12C [telithromycin] | QT positive | –
